For 1 compound, Survival results are on record in patent US4185119A, “Antiallergic methods” (priority 1977, dated 1980).

The test system of the assay is anaphylactic asthma in guinea-pigs. The experiment in a line: Inhibition test of anaphylactic asthma in guinea-pigs. The class given is in vivo. As to conditions: intraperitoneal, survived more than 7 minutes. The method, then: (c) Guinea-pig antiserum against egg albumin
A solution of egg albumin (10 mg.) in normal saline (1 ml.) was mixed with incomplete adjuvant (1 ml.) to give an emulsion. The emulsion was given subcutaneously in a single dose of 0.4 ml. divided equally (0.1 ml.) to the four pads of male Hartley strain guinea-pigs, each weighing 350-380 g.
Two weeks after the administration, a solution of egg albumin (1 mg.) in normal saline (1 ml.) was further given subcutaneously in a single dose of 0.4 ml divided equally (0.1 ml.) to the four pads of the same guinea-pigs.
Subsequently, one week and two weeks after the second adminstration, the guinea-pigs were treated in substantially the same manner as the above second administration.
One week after the final administration, blood samples were collected from the guinea-pigs and treated in substantially the same manner as described in the above item (a). The antisera thus obtained were stored at -80° C. prior to use.
(3) Inhibition test of anaphylactic asthma in guinea-pigs
To ten male Hartley strain guinea-pigs, weighing 300 g was given intravenously the guinea-pig antiserum against egg albumin (0.1 ml.), respectively. Twenty four hours after the administration, each of the guinea-pigs was put individually into each of boxes (innercapacity: 5.3 liters). A normal saline containing egg albumine (1%) was continuously sprayed with a nebulizer into the boxes.
Beforehand, one hour and 30 seconds before putting the guinea-pigs into each of the boxes, a normal saline (1 ml.) containing the prescribed amount of N-methylaurotetanine hydrochloride and carboxymethylcellulose (0.5%) was given intraperitoneally to five guinea-pigs and a normal saline (1 ml.) containing only carboxymethylcellulose (0.5%) was given intraperitoneally to each of the remaining 5 guinea-pigs. Time till the test animal was suffocated to death, was measured and when animals survived more than 7 minutes, inhibition of anaphylactic asthma were judged as effective. Survival (%) was calculated by the following formula: [formula]

Structures can show the parent of a compound that is named as a salt.

As to `COc1cc2c(cc1O)CC1c3c(cc(OC)c(OC)c3-2)CCN1C` (stereo not drawn) [N-Methyllaurotetanine hydrochloride], the Survival is listed as 0% (30 mg/kg), 40% (60 mg/kg) and 80% (120 mg/kg).
